In patent US7396837B2, “Antitumoral analogs of lamellarins” (Pharma Mar, S.A.U., priority 2002, dated 2008):
Read-outs that look alike come from different tables or passages of the source.

Tests used:
Assay type in all cases: cell-based
SK-MEL-28 = assay: SRB colorimetric cell growth inhibition assay, SK-MEL-28; conditions: Homo sapiens, SK-MEL-28, MEL-28; for GI50: GI=growth inhibition, read-out: GI50 MEL-28; for CC50: LC=cell killing (cytotoxic effect), read-out: LC50 MEL-28; for IC (TGI): TGI=total growth inhibition (cytostatic effect), read-out: TGI MEL-28
Outline: (§1)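 Cancer cells grown in vitro were continuously treated with compound. Cell mass was then determined by SRB staining and expressed as growth inhibition.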

PANC-1 = assay: SRB colorimetric cell growth inhibition assay, PANC-1; conditions: Homo sapiens, PANC-1, PANC-1; for GI50: GI=growth inhibition, read-out: GI50 PANC-1; for CC50: read-out: LC50 PANC-1; for IC (TGI): read-out: TGI PANC-1
Outline: as §1

SKOV-3 = assay: SRB colorimetric cell growth inhibition assay, SKOV-3; conditions: Homo sapiens; for GI50: SK-OV-3, SKOV-3, GI=growth inhibition, read-out: GI50 SKOV-3; for CC50 / IC (TGI): SK-OV-3, SKOV-3; for CC50: LC=cell killing (cytotoxic effect), read-out: LC50 SKOV-3; for IC (TGI): TGI=total growth inhibition (cytostatic effect), read-out: TGI SKOV-3
Outline: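 SRB colorimetric readout of cell growth/viability in 96-well format. Means ± SD from triplicate wells; GI (growth inhibition), TGI (total growth inhibition, cytostatic) and LC (cell killing, cytotoxic) parameters derived.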

K-562 = assay: SRB colorimetric cell growth inhibition assay, K-562; conditions: Homo sapiens, K562, K-562; for GI50: GI=growth inhibition, read-out: GI50 K-562; for CC50: read-out: LC50 K-562; for IC (TGI): read-out: TGI K-562
Outline: as §1

LoVo-Dox = assay: SRB colorimetric cell growth inhibition assay, LoVo-Dox (MDR); conditions: Homo sapiens, LOVO-DOX; for GI50: GI=growth inhibition, read-out: GI50 LOVO-DOX; for CC50: read-out: LC50 LOVO-DOX; for IC (TGI): read-out: TGI LOVO-DOX
Outline: as §1

A-549 = assay: SRB colorimetric cell growth inhibition assay, A-549; conditions: Homo sapiens, A549, A-549; for GI50: GI=growth inhibition, read-out: GI50 A-549; for CC50: read-out: LC50 A-549; for IC (TGI): read-out: TGI A-549
Outline: as §1

SK-BR-3 = assay: SRB colorimetric cell growth inhibition assay, SK-BR-3; conditions: Homo sapiens, SK-BR-3, SK-BR-3; for GI50: GI=growth inhibition, read-out: GI50 SK-BR-3; for CC50: LC=cell killing (cytotoxic effect), read-out: LC50 SK-BR-3; for IC (TGI): TGI=total growth inhibition (cytostatic effect), read-out: TGI SK-BR-3
Outline: as §1

IGROV-ET = assay: SRB colorimetric cell growth inhibition assay, IGROV-ET (ET-743 resistant); conditions: Homo sapiens, IGROV-ET; for GI50: GI=growth inhibition, read-out: GI50 IGROV-ET; for CC50: LC=cell killing (cytotoxic effect), read-out: LC50 IGROV-ET; for IC (TGI): TGI=total growth inhibition (cytostatic effect), read-out: TGI IGROV-ET
Outline: as §1

HT-29 = assay: SRB colorimetric cell growth inhibition assay, HT-29; conditions: Homo sapiens, HT-29, HT-29; for GI50: GI=growth inhibition, read-out: GI50 HT-29; for CC50: read-out: LC50 HT-29; for IC (TGI): read-out: TGI HT-29
Outline: as §1

IGROV = assay: SRB colorimetric cell growth inhibition assay, IGROV; conditions: Homo sapiens, IGROV; for GI50: GI=growth inhibition, read-out: GI50 IGROV; for CC50: LC=cell killing (cytotoxic effect), read-out: LC50 IGROV; for IC (TGI): TGI=total growth inhibition (cytostatic effect), read-out: TGI IGROV
Outline: as §1

LoVo = assay: SRB colorimetric cell growth inhibition assay, LoVo; conditions: Homo sapiens, LoVo; for GI50: GI=growth inhibition, read-out: GI50 LOVO; for CC50: read-out: LC50 LOVO; for IC (TGI): read-out: TGI LOVO
Outline: as §1

LNCaP = assay: SRB colorimetric cell growth inhibition assay, LNCaP; conditions: Homo sapiens, LNCaP, LN-caP
Outline: as §1

[1] = SRB colorimetric cell growth inhibition assay, H-MEC-1; conditions: human, H-MEC-1 cells, H-MEC-1; LC=cell killing (cytotoxic effect); read-out: LC50 H-MEC-1
Excerpt: (§2) Inhibition of Cell Growth by Colorimetric Assay.
(§3) A colorimetric type of assay, using sulforhodamine B (SRB) reaction has been adapted for a quantitative measurement of cell growth and viability (following the technique described by P. A. Skehan, et al., J. Natl. Cancer Inst. 1990, 82, 1107-1112).
(§4) This form of assay employs 96 well cell culture microplates of 9 mm diameter (T. Mosmann et al., J. of Immunological Methods 1983, 65, 55-63; G. T. Faircloth et al., J. of Tissue and Culture Methods 1988, 11, 201-205).
(§5) Most of the cell lines are obtained from American Type Culture Collection (ATCC) derived from different human cancer types.
(§6) The values for mean +/− SD of data from triplicate wells are calculated. Some parameters for cellular responses can be calculated: GI=growth inhibition, TGI=total growth inhibition (cytostatic effect) and LC=cell killing (cytotoxic effect).

H-MEC-1 = assay: as above; conditions: Homo sapiens, HMEC-1, H-MEC-1; for GI50: GI=growth inhibition; for IC (TGI): TGI=total growth inhibition (cytostatic effect), read-out: TGI H-MEC-1
Excerpt: as §2, §3, §4, §5, §6

DU-145 = assay: SRB colorimetric cell growth inhibition assay, DU-145; conditions: Homo sapiens, DU-145, DU-145; for GI50: GI=growth inhibition, read-out: GI50 DU-145; for CC50: LC=cell killing (cytotoxic effect), read-out: LC50 DU-145; for IC (TGI): TGI=total growth inhibition (cytostatic effect), read-out: TGI DU-145
Outline: as §1

[2] = LC=cell killing (cytotoxic effect)
[3] = TGI=total growth inhibition (cytostatic effect)
[4] = cell killing (cytotoxic effect)
[5] = total growth inhibition (cytostatic effect)

Compound: COc1cc2c(cc1OC)-c1c(-c3ccc(OC(=O)[C@H](C)N)c(OC)c3)c3c4cc(OC)c(OC(=O)[C@H](C)N)cc4oc(=O)c3n1CC2 [Compound 63]
- GI50 (SK-MEL-28): 2.34 µM
- CC50 (SK-MEL-28): 10.1 µM
- IC (TGI) (SK-MEL-28): 4.87 µM
- GI50 (PANC-1): 1.93 µM
- CC50 (PANC-1; [2]): 13.2 µM
- IC (TGI) (PANC-1; [3]): 5.05 µM
- GI50 (SKOV-3): 3.06 µM
- CC50 (SKOV-3): 11.1 µM
- IC (TGI) (SKOV-3): 5.84 µM
- GI50 (K-562): 2.9 µM
- CC50 (K-562; [2]): 15.2 µM
- IC (TGI) (K-562; [3]): 6.75 µM
- GI50 (LoVo-Dox): 0.909 µM
- CC50 (LoVo-Dox; [2]): 9.85 µM
- IC (TGI) (LoVo-Dox; [3]): 2.95 µM
- GI50 (A-549): 2.84 µM
- CC50 (A-549; [2]): 10.9 µM
- IC (TGI) (A-549; [3]): 5.57 µM
- GI50 (SK-BR-3): 1.57 µM
- CC50 (SK-BR-3): 14.7 µM
- IC (TGI) (SK-BR-3): 4.8 µM
- GI50 (IGROV-ET): 0.64 µM
- CC50 (IGROV-ET): 15.2 µM
- IC (TGI) (IGROV-ET): 2.86 µM
- GI50 (HT-29): 2.92 µM
- CC50 (HT-29; [2]): 11.1 µM
- IC (TGI) (HT-29; [3]): 5.7 µM
- GI50 (IGROV): 0.975 µM
- CC50 (IGROV): 14.6 µM
- IC (TGI) (IGROV): 3.86 µM
- GI50 (LoVo): 1.46 µM
- CC50 (LoVo; [2]): 9.11 µM
- IC (TGI) (LoVo; [3]): 3.68 µM
- GI50 (LNCaP; GI=growth inhibition, read-out: GI50 LN-caP): 1.13 µM
- CC50 (LNCaP; LC=cell killing (cytotoxic effect), read-out: LC50 LN-caP): 9.61 µM
- IC (TGI) (LNCaP; TGI=total growth inhibition (cytostatic effect), read-out: TGI LN-caP): 3.47 µM
- CC50 [1]: 10.1 µM
- GI50 (H-MEC-1): 2.72 µM
- IC (TGI) (H-MEC-1): 5.25 µM
- GI50 (DU-145): 2.2 µM
- CC50 (DU-145): 11.7 µM
- IC (TGI) (DU-145): 5.08 µM

Compound: COc1cc(-c2c3c4cc(OC)c(OC(=O)[C@H](C)NC(=O)OC(C)(C)C)cc4oc(=O)c3n3ccc4c(OC(=O)[C@H](C)NC(=O)OC(C)(C)C)c(OC)c(OC)cc4c23)ccc1OC(=O)[C@H](C)NC(=O)OC(C)(C)C [Compound 97]
- GI50 (SK-MEL-28): 0.262 µM
- CC50 (SK-MEL-28): 9.59 µM
- IC (TGI) (SK-MEL-28): 4.71 µM
- GI50 (PANC-1): 4.47 µM
- CC50 (PANC-1; [4]): 9.59 µM
- IC (TGI) (PANC-1; [5]): 9.59 µM
- GI50 (SKOV-3): 6.01 µM
- CC50 (SKOV-3): 9.59 µM
- IC (TGI) (SKOV-3): 9.59 µM
- GI50 (K-562): 3.2 µM
- CC50 (K-562; [4]): 9.59 µM
- IC (TGI) (K-562; [5]): 6.86 µM
- GI50 (LoVo-Dox): 5.29 µM
- CC50 (LoVo-Dox; [4]): 9.59 µM
- IC (TGI) (LoVo-Dox; [5]): 9.59 µM
- GI50 (A-549): 9.59 µM
- CC50 (A-549; [4]): 9.59 µM
- IC (TGI) (A-549; [5]): 9.59 µM
- GI50 (SK-BR-3): 1.23 µM
- CC50 (SK-BR-3): 9.59 µM
- IC (TGI) (SK-BR-3): 3.58 µM
- GI50 (IGROV-ET): 0.678 µM
- CC50 (IGROV-ET): 9.59 µM
- IC (TGI) (IGROV-ET): 3.33 µM
- GI50 (HT-29): 9.59 µM
- CC50 (HT-29; [4]): 9.59 µM
- IC (TGI) (HT-29; [5]): 9.59 µM
- GI50 (IGROV): 0.186 µM
- CC50 (IGROV): 7.54 µM
- IC (TGI) (IGROV): 1.94 µM
- GI50 (LoVo): 5.28 µM
- CC50 (LoVo; [4]): 9.59 µM
- IC (TGI) (LoVo; [5]): 9.59 µM
- CC50 [1]: 9.59 µM
- GI50 (H-MEC-1): 0.0337 µM
- IC (TGI) (H-MEC-1): 0.0959 µM
- GI50 (DU-145): 4.13 µM
- CC50 (DU-145): 9.59 µM
- IC (TGI) (DU-145): 9.59 µM
